Patent US20110065675A1, “AZO DYE RELATED SMALL MOLECULE MODULATORS OF PROTEIN-PROTEIN INTERACTIONS” (University of Miami, priority 2008, published 2011)

Legend:
[1] = target: T1, human CD40/CD154 (Homo sapiens, UniProt P29965); assay: Human CD40/CD154 binding inhibition assay (cell-free, plate-based); conditions: for Human CD40/CD154 IC50 / IC50: cell-free binding; for IC50: read-out: Human CD40/CD154 IC50; for Human CD40/CD154 log IC50: log of IC50, cell-free binding
T1 construct: CD154 (soluble human, FLAG-tagged, recombinant from Alexis Biochemicals; MW=18 kDa); purchased Alexis Biochemicals
T1 sequence (P29965 113-261 limits assumed): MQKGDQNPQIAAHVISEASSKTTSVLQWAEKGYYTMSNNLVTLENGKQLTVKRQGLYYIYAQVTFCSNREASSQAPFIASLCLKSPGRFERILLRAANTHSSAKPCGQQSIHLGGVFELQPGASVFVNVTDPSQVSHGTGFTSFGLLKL
Description: A 96-well plate-based cell-free in vitro binding inhibition assay, which is a modification of an assay described in U.S. Pat. No. 7,173,046, incorporated by reference in its entirety, has been developed and used for activity screening. Briefly, CD40 is coated at a preselected concentration, and binding of (FLAG-tagged) CD154 is measured by reacting with secondary antibody and using TMB liquid substrate system as a substrate for horseradish peroxidase for reading at 450 nm. The detailed procedure is as follows: Microtiter plates (Nunc F MaxiSorp) were coated with […] of CD40: Fc (human:Fc human, recombinant from Alexis Biochemicals; MW=54 kDa) diluted in PBS pH 7.2 at a preselected concentration of 0.3125 μg/mL. Plates were covered with plate sealer and stored overnight at 4° C. The liquid was removed from the plates and blotted dry. Plates were blocked by washing once with approx. 300 μL/well of Blocking Solution (PBS pH 7.2, 0.05% Tween-20, 1% BSA) and incubated with the same solution for 1 hour at room temperature (RT) or at 4° C. overnight. Coated plates were washed three times with Washing Solution (PBS pH 7.4, 0.05% Tween-20) and blotted dry. A preselected dilution of CD154 (soluble human, FLAG-tagged, recombinant from Alexis Biochemicals; MW=18 kDa) of 0.0087500875 μg/mL range was prepared in 100 mM HEPES, 0.005% BSA pH 7.2. Binding was carried out by adding 100 μL of this CD154 dilution/well and incubating at RT in the presence of test compounds (or blank as negative control). After incubation, the plates were washed with Washing Solution and blotted dry. Bound CD154 was detected with 200 μL/well of secondary antibody mAb ANTI-FLAG M2—Peroxidase Conjugate (anti-FLAG M2-peroxidase HRP conjugate; Sigma-Aldrich) diluted 1:40,000 in Washing Solution. After incubation, the plates were washed and blotted dry. 200 μL/well of the HR-Peroxidase substrate TMB (3,3′,5,5′-tetramethylbenzidine; Sigma-Aldrich) were added, and the plates were incubated for approximately 30 minutes in the dark. The reaction was stopped with 0.5 M H2SO4 and read at 450 nm. All conditions were tested in at least three independent experiments in duplicate or triplicate per plates. Data were normalized and fitted with standard log inhibitor vs. response models using GraphPad Prism 5 to establish median inhibitory ICso values.
A representative result using the monoclonal anti-human CD154 antibody (R&D Systems, monoclonal anti-human CD40 ligand/TNFSF5 antibody, MAB617; MW≈150 kDa used) as positive control is shown in FIG. 1.
Binding inhibition assays with this system provided consistent and well-reproducible results, as FIG. 1 (bottom), focusing on the concentration range of their activities, illustrates. […] The effect of DMSO, which was used as the diluting solvent for the non-water-soluble compounds and is a standard solvent in HTS assays, on the integrity of the assay has been examined. DMSO concentrations above 10% interfere with the binding assay, but concentrations below 3% have no effect. […] Because 5 or 10 mM stock solutions were used, all IC50 values below 250 μM can be considered as unaffected by DMSO.

[2] = target: T2, mouse CD40/CD154 (mCD40:mCD154) (Mus musculus, UniProt P27548); assay: Murine CD40/CD154 binding inhibition assay; conditions: for IC50: cell-free binding, read-out: Mouse CD40/CD154 IC50; for Mouse CD40/CD154 log IC50: log of IC50, cell-free binding
T2 construct: (FLAG-tagged) mCD154 (recombinant mouse CD40L, soluble, Alexis Biochemicals); purchased R&D Systems (mCD40/Fc); Alexis Biochemicals (mCD154)
T2 sequence (P27548 112-260 limits assumed): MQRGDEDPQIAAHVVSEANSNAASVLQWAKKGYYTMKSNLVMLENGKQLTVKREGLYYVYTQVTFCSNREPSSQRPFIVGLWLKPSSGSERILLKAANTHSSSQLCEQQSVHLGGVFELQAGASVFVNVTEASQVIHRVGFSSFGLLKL
Description: Compounds of interest were also tested in a murine (mouse) model similar to the human one with murine CD40 and CD154 replacing the corresponding human proteins. This serves as additional confirmation of the in vitro inhibitory potential of these compounds, and it was considered important because mouse models are likely to be used as the first in vivo tests. […] The experimental setup used was similar to the one described above, but using mCD40 (recombinant mouse CD40/TNFRSF5/Fc Chimera, soluble, R&D Systems) and (FLAG-tagged) mCD154 (recombinant mouse CD40L, soluble, Alexis Biochemicals). This time, however, a higher concentration of CD154 ligand had to be employed to obtain adequate signals, and after a number of calibration tests, mCD40 coating at 0.3125 μg/mL with mCD154 (mCD40L) at 1.1212 μg/mL range was selected to be used to screen the inhibiting activity of various compounds.
The experiments confirmed that the murine anti-CD154 monoclonal antibody (Taconic, MR1) was active in this system at the expected concentration (˜1 nM range), the human antibody was not, and vice versa, the human mAb was active in the human system, but not in the mouse system. The mouse system provided a similar range of activity with some (up to approximately five-fold) changes in activities compared to that seen in the human system (FIG. 2) (Table 1).

[3] = target: human TNF-R1/TNFα (Homo sapiens, UniProt P01375+P19438); assay: Specificity test: human TNF-R1/TNFα binding inhibition assay; conditions: for IC50: cell-free binding, read-out: Human TNFR1/TNFα IC50; for Human TNFR1/TNFα log IC50: log of IC50, cell-free binding
human TNF-R1/TNFα (Homo sapiens, UniProt P01375+P19438), sequence (P01375 77-233 limits assumed): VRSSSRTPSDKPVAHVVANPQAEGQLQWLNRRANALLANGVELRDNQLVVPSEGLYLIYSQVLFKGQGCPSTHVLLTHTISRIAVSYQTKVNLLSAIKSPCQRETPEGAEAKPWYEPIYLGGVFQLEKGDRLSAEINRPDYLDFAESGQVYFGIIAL
human TNF-R1/TNFα (Homo sapiens, UniProt P01375+P19438), sequence (P19438 30-211 limits assumed): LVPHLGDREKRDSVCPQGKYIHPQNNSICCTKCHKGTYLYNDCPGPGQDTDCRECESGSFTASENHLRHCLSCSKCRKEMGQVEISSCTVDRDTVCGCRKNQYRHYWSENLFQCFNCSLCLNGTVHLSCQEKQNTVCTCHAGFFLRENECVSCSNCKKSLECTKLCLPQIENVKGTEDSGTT
Excerpt: (§1) A main concern for the therapeutic applicability of these compounds and of small molecule PPI inhibitors in general is related to their ability to achieve some acceptable degree of selectivity/specificity for the PPI of interest. To identify compounds that show acceptable specificity for the CD40/CD154 system, their ability to inhibit the TNF-R1/TNF-α PPI was investigated since this is particularly relevant as CD154 is part of the TNF superfamily. The experimental setup used was very similar to the one described in Example 1, but using plate-coated TNF-R1 and TNF-α as ligand (with a corresponding anti-TNF-α mAb as positive control). The concentration of TNF-R1 and TNF-α used were 0.6 μg/mL and 0.02 μg/mL, respectively.

[4] = tested on: human TNF-R1/TNFα; assay: as above
Excerpt: as §1

[5] = target: T3, CD40 (Homo sapiens, UniProt P25942); assay: Identification of binding partner: binding to CD40 (pre-incubation, wash-out); conditions: compound incubated 1 h with CD40, washed, then CD154 added
T3 construct: purchased Alexis Biochemicals
T3 sequence (P25942 21-193 limits assumed): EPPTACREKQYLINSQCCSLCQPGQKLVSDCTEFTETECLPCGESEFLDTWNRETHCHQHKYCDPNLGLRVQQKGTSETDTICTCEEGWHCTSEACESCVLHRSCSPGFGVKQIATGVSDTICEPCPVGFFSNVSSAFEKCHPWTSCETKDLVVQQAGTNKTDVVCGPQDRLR
Excerpt: It is also of interest to identify whether the compounds bind to the receptor CD40 or its ligand CD154 (CD40L). The main goal is to block the CD40/CD154 costimulatory interaction to achieve altered immune response and long-term tolerance; however, it seems more desirable to achieve this by targeting CD154, which is expressed mainly on activated T cells, since this way a more specific immune suppression could be achieved then by targeting CD40. To evaluate the binding partner of the test compounds, CD40 or CD154 were incubated for one hour with increasing concentrations of the test compounds, and after a wash, their ability to still bind their corresponding protein binding partner (CD154 or CD40, respectively) was assessed using a setup similar to that described before (Example 1).
To test if compounds bind specifically to CD40, the procedure of Example 1 was followed with a modification. After blocking the plates with blocking solution and washing, 100 μL of different dilutions of the compounds were added to the wells and incubated at room temperature (RT) for 1 h to allow binding with CD40 in the absence of its CD154 ligand. The plates were then washed three times with washing solution. CD154 was then added and the amount bound was assessed as before.

Compound | Human CD40/CD154 IC50 [1] | IC50 [1] | Human CD40/CD154 log IC50 [1] | IC50 [2] | Mouse CD40/CD154 log IC50 [2] | IC50 [3] | Human TNFR1/TNFα log IC50 [3] | Specificity [4] | Inhibitory activity for all interactions tested ([4]; all interactions tested (CD40/CD154, TNF-R1/TNF-α)) | Binding to CD40 [5]
O.O=C([O-])c1ccccc1-c1c2cc(I)c(=O)c(I)c-2oc2c(I)c([O-])c(I)cc12.[Na+].[Na+] [Erythrosin B (FD&C red 3), Erythrosin B, reference compound] | 2.0 µg/mL | 1.9 µM | −5.72 | 5.9 µM | −5.23 | 9 µM | −5.04 | nonspecific promiscuous inhibitor | ~10 µM | ubiquitous binder
Nc1ccc2cc(S(=O)(=O)[O-])cc(O)c2c1N=Nc1ccc(NC(=O)Nc2ccc(N=Nc3c(N)ccc4cc(S(=O)(=O)[O-])cc(O)c34)c(S(=O)(=O)[O-])c2)cc1S(=O)(=O)[O-].[Na+].[Na+].[Na+].[Na+] [Direct red 75 (chlorazol fast pink), direct red 75] | 4.9 µg/mL | 4.8 µM | −5.32 | 7.4 µM | −5.13 | 322 µM | −3.49 | – | – | –
O=C(Nc1ccc2c(O)c(N=Nc3ccc(N=Nc4ccc(S(=O)(=O)[O-])cc4)cc3S(=O)(=O)[O-])c(S(=O)(=O)[O-])cc2c1)Nc1ccc2c(O)c(N=Nc3ccc(N=Nc4ccc(S(=O)(=O)[O-])cc4)cc3S(=O)(=O)[O-])c(S(=O)(=O)[O-])cc2c1.[Na+].[Na+].[Na+].[Na+].[Na+].[Na+] [Direct red 80, direct red 80] | 1.9 µg/mL | 1.8 µM | −5.73 | 5.9 µM | −5.23 | 1430 µM | −2.85 | – | – | –
direct red 13 | 3.5 µg/mL | 5.5 µM | −5.26 | 12.7 µM | −4.90 | 214 µM | −3.67 | – | – | –
direct fast red B | 5.7 µg/mL | 14 µM | −4.86 | 16.7 µM | −4.78 | 2160 µM | −2.67 | – | – | –
O=C(Nc1ccc2c(O)c(N=Nc3ccc(N=Nc4ccc(S(=O)(=O)[O-])cc4)cc3)c(S(=O)(=O)[O-])cc2c1)c1ccccc1.[Na+].[Na+] [Direct red 81, direct red 81] | 6.9 µg/mL | 13.6 µM | −4.87 | 33.8 µM | −4.47 | > 1000 µM | >−3.0 | – | – | –
Cc1cc(S(=O)(=O)[O-])ccc1N=Nc1ccc(N=Nc2c(O)ccc3cccc(S(=O)(=O)[O-])c23)c(C)c1.[Na+].[Na+] [Crocein scarlet 7B, crocein scarlet 7B] | 3.6 µg/mL | 5.5 µM | −5.26 | 13.7 µM | −4.86 | 168 µM | −3.77 | – | – | –
